Results on 21 compounds are retold here after patent US20140107109A1, “AMINO-DIHYDROTHIAZINE AND AMINO-DIOXIDO DIHYDROTHIAZINE COMPOUNDS AS BETA-SECRETASE ANTAGONISTS AND METHODS OF USE” (Amgen Inc., priority 2012, published 2014).

By IC50 is commonly meant the concentration needed to halve the response being measured.

Test [1] addresses Beta Secretase enzyme (BACE1) (Homo sapiens, UniProt P56817). The test can be described thus: In vitro enzymatic BACE FRET assay. The class given is biochemical. To be noted: read-out: BACE1 FRET assay IC50. Summed up:
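Readout: dequenched fluorescence (ex 488 nm/[…]) after neutralizing with Tris buffer. Reactions, begun by adding 50 nM quenched peptide substrate spanning the BACE cleavage site, were incubated one hour at pH 4.2 in 0.05 M acetate with 100 uM genapol and 10% final DMSO.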

Test [2] has as its system Aβ40 in conditioned medium of cells stably expressing Amyloid Precursor Protein (APP). The experiment in a line: In vitro BACE cell-based assay (HEK cell assay), Aβ40 sandwich ELISA. To be noted: Homo sapiens, HEK293; Aβ40, 24 h incubation. Summed up:
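Aβ40 in conditioned medium was quantified by time-resolved fluorescence sandwich ELISA (pAb40 capture 3 h at 4 °C, biotin-6E10 detection 2 h at 4 °C) after 24 h compound exposure of APP-expressing cells. Doses spanned 10 points from 100 μM or 10 μM top, 0.1% DMSO; IC50 was derived from percent of control.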
Background: ELISA stands for enzyme-linked immunosorbent assay.

In the next test the target is T1, Cathepsin D (Cat D) (Homo sapiens, UniProt P07339).
T1 construct: Recombinant Cat D was expressed in CHO cells; made in house; host or cells: CHO cells
The experiment in a line: In vitro enzymatic Cathepsin D (Cat D) FRET assay. The class given is biochemical. To be noted: read-out: CatD IC50. Summed up: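 FRET read-out: a fluorophore/quencher-labelled peptide substrate is cleaved by 9 nM Cat D (recombinant, CHO-expressed) following a one-hour preincubation with inhibitor dilutions in DMSO. Tris buffer added to neutralize pH ends the reaction before fluorescence measurement.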

T1 sequence (P07339 65-412, species assumed): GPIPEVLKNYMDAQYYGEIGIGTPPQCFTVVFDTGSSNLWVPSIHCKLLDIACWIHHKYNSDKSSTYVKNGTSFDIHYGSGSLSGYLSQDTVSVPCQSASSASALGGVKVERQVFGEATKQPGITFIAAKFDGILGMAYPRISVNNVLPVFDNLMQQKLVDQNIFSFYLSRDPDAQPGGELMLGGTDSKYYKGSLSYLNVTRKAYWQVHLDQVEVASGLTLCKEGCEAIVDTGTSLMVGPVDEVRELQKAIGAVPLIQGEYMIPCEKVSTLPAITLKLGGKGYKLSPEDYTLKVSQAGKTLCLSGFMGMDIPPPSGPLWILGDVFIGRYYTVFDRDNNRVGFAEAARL
Sequence of Beta Secretase enzyme (BACE1) (P56817 46-501): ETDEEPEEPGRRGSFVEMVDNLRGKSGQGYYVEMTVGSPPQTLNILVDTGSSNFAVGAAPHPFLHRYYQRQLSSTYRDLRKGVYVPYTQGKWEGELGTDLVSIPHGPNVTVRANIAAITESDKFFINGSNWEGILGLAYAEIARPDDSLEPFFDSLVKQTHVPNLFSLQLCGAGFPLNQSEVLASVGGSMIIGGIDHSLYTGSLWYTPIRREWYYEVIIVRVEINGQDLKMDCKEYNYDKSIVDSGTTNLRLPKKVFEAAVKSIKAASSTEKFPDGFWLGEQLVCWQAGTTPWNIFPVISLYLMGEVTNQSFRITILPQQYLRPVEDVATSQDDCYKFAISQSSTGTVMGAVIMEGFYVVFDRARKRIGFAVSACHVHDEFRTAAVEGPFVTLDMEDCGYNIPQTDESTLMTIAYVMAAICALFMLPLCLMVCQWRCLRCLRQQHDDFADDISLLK

On to `CC1(C)C(N)=N[C@](C)(c2cc(Nc3nccc4cc(C#N)cnc34)ccc2F)CS1(=O)=O` [Example 48, 8-((3-((3R)-5-amino-3,6,6-trimethyl-1,1-dioxido-3,6-dihydro-2H-1,4-thiazin-3-yl)-4-fluorophenyl)amino)-1,7-naphthyridine-3-carbonitrile], for which the half-inhibitory concentration (IC50) in test [1] is 0.54 nM; in test [2], 1.9 nM; at Cathepsin D (Cat D) it was 66700 nM.

For `CC1(C)C(N)=N[C@](C)(c2cc(Nc3ncc(F)c4cc(Cl)cnc34)ccc2F)CS1(=O)=O` [Example 49, N-(3-((3R)-5-amino-3,6,6-trimethyl-1,1-dioxido-3,6-dihydro-2H-1,4-thiazin-3-yl)-4-fluorophenyl)-3-chloro-5-fluoro-1,7-naphthyridin-8-amine], the IC50 in test [1] stood at 0.56 nM; in test [2] it was 15.1 nM; at Cathepsin D (Cat D), 27100 nM.

As to `COc1cnc2c(Nc3ccc(F)c([C@]4(C)CS(=O)(=O)C(C)(C)C(N)=N4)c3)ncc(F)c2c1` [Example 50, N-(3-((3R)-5-amino-3,6,6-trimethyl-1,1-dioxido-3,6-dihydro-2H-1,4-thiazin-3-yl)-4-fluorophenyl)-5-fluoro-3-methoxy-1,7-naphthyridin-8-amine], the IC50 in test [1] worked out at 2 nM; in test [2] it was 5.3 nM; on Cathepsin D (Cat D), 73300 nM.

Turning to `COc1cnc2c(Nc3ccc(F)c([C@]4(C)CS(=O)(=O)C(C)(C)C(N)=N4)c3)ncnc2c1` [Example 51, N-(3-((3R)-5-amino-3,6,6-trimethyl-1,1-dioxido-3,6-dihydro-2H-1,4-thiazin-3-yl)-4-fluorophenyl)-7-methoxypyrido[3,2-d]pyrimidin-4-amine], the IC50 in test [1] came to 2.7 nM; in test [2] it was 3 nM; on Cathepsin D (Cat D) it was 81000 nM.

In the case of `CC1(C)C(N)=N[C@](C)(c2cc(Nc3ncnc4cc(Cl)cnc34)ccc2F)CS1(=O)=O` [Example 52, N-(3-((3R)-5-amino-3,6,6-trimethyl-1,1-dioxido-3,6-dihydro-2H-1,4-thiazin-3-yl)-4-fluorophenyl)-7-chloropyrido[3,2-d]pyrimidin-4-amine], the values for the half-inhibitory concentration (IC50) (in test [1]; in test [2]; on Cathepsin D (Cat D)) were 2 nM, 2.3 nM and 36000 nM, respectively.

As for `COc1cc(F)c2c(Nc3ccc(F)c([C@]4(C)CS(=O)(=O)C(C)(C)C(N)=N4)c3)ncnc2c1` [Example 53, N-(3-((3R)-5-amino-3,6,6-trimethyl-1,1-dioxido-3,6-dihydro-2H-1,4-thiazin-3-yl)-4-fluorophenyl)-5-fluoro-7-methoxy-4-quinazolinamine], the IC50 was determined as 739 nM in test [1], 399 nM in test [2] and 320000 nM at Cathepsin D (Cat D).

With `Cc1nc2c(Nc3ccc(F)c([C@]4(C)CS(=O)(=O)C(C)(C)C(N)=N4)c3)nccc2s1` [Example 54, N-(3-((3R)-5-amino-3,6,6-trimethyl-1,1-dioxido-3,6-dihydro-2H-1,4-thiazin-3-yl)-4-fluorophenyl)-2-methyl[1,3]thiazolo[4,5-c]pyridin-4-amine], the IC50 was 17.2 nM in test [1], 137 nM in test [2] and more than 400000 nM on Cathepsin D (Cat D).

With `CC1(C)C(N)=N[C@](C)(c2cc(Nc3nccc4nc(C(F)(F)F)cnc34)ccc2F)CS1(=O)=O` [Example 55, N-(3-((3R)-5-amino-3,6,6-trimethyl-1,1-dioxido-3,6-dihydro-2H-1,4-thiazin-3-yl)-4-fluorophenyl)-2-(trifluoromethyl)pyrido[3,4-b]pyrazin-5-amine], the IC50 is 5.2 nM in test [1], 34.6 nM in test [2] and more than 133000 nM at Cathepsin D (Cat D).

For `COc1cnc2c(Nc3ccc(F)c([C@]4(C)CS(=O)(=O)CC(N)=N4)c3)nccc2c1` [Example 56, N-(3-((3R)-5-amino-3-methyl-1,1-dioxido-3,6-dihydro-2H-1,4-thiazin-3-yl)-4-fluorophenyl)-3-methoxy-1,7-naphthyridin-8-amine], the IC50 worked out at 62.7 nM in test [1], 27.1 nM in test [2] and 69800 nM on Cathepsin D (Cat D).

`C[C@@]1(c2cc(Nc3nccc4cc(Cl)cnc34)ccc2F)CS(=O)(=O)CC(N)=N1` [Example 57, N-(3-((3R)-5-amino-3-methyl-1,1-dioxido-3,6-dihydro-2H-1,4-thiazin-3-yl)-4-fluorophenyl)-3-chloro-1,7-naphthyridin-8-amine]: the IC50 turned out to be 4.3 nM in test [1], 19 nM in test [2] and 134000 nM on Cathepsin D (Cat D).

As to `Cc1nc2c(Nc3ccc(F)c([C@]4(C)CS(=O)(=O)CC(N)=N4)c3)nccc2s1` [Example 58, N-(3-((3R)-5-amino-3-methyl-1,1-dioxido-3,6-dihydro-2H-1,4-thiazin-3-yl)-4-fluorophenyl)-2-methyl[1,3]thiazolo[4,5-c]pyridin-4-amine], the IC50 turned out to be 190 nM in test [1], 292 nM in test [2] and 304000 nM at Cathepsin D (Cat D).

For `COc1cnc2c(Nc3ccc(F)c([C@]4(C)CS(=O)(=O)[C@@](C)(F)C(N)=N4)c3)nccc2n1` [Example 59, N-(3-((3R,6R)-5-amino-6-fluoro-3,6-dimethyl-1,1-dioxido-3,6-dihydro-2H-1,4-thiazin-3-yl)-4-fluorophenyl)-2-methoxypyrido[3,4-b]pyrazin-5-amine], the results for the IC50 (in test [1]; in test [2]; on Cathepsin D (Cat D)) were 3.3 nM, 178 nM and 388000 nM, respectively.

Regarding `C[C@]1(F)C(N)=N[C@](C)(c2cc(Nc3nccc4cc(C#N)cnc34)ccc2F)CS1(=O)=O` [Example 60, 8-((3-((3R,6R)-5-amino-6-fluoro-3,6-dimethyl-1,1-dioxido-3,6-dihydro-2H-1,4-thiazin-3-yl)-4-fluorophenyl)amino)-1,7-naphthyridine-3-carbonitrile], the IC50 in test [1] was less than 2 nM; in test [2], 80.8 nM; at Cathepsin D (Cat D), 99900 nM.

With `COc1cnc2c(Nc3ccc(F)c(C4(CF)CS(=O)(=O)C(C)(C)C(N)=N4)c3)nccc2c1` (stereo not drawn) [Example 61, N-(3-(5-amino-3-(fluoromethyl)-6,6-dimethyl-1,1-dioxido-3,6-dihydro-2H-1,4-thiazin-3-yl)-4-fluorophenyl)-3-methoxy-1,7-naphthyridin-8-amine], the IC50 in test [1] is 6.5 nM; in test [2], 31.7 nM; on Cathepsin D (Cat D) it was more than 400000 nM.

For the compound `COc1cnc2c(Nc3ccc(F)c(C4(C(F)F)CS(=O)(=O)C(C)(C)C(N)=N4)c3)nccc2c1` (stereo not drawn) [Example 62, N-(3-(5-amino-3-(difluoromethyl)-6,6-dimethyl-1,1-dioxido-3,6-dihydro-2H-1,4-thiazin-3-yl)-4-fluorophenyl)-3-methoxy-1,7-naphthyridin-8-amine], the half-inhibitory concentration (IC50) is 241 nM in test [1], 1820 nM in test [2] and more than 400000 nM on Cathepsin D (Cat D).

Regarding `COc1cnc2c(Nc3ccc(F)c([C@@]4(C(F)(F)F)CS(=O)(=O)C(C)(C)C(N)=N4)c3)nccc2c1` [Example 64, N-(3-((3R)-5-amino-6,6-dimethyl-1,1-dioxido-3-(trifluoromethyl)-3,6-dihydro-2H-1,4-thiazin-3-yl)-4-fluorophenyl)-3-methoxy-1,7-naphthyridin-8-amine], the IC50 is 8690 nM in test [1], more than 10000 nM in test [2] and more than 400000 nM on Cathepsin D (Cat D).

For the compound `COc1cnc2c(Nc3ccc(F)c([C@]4(C(F)F)CS(=O)(=O)C(C)(C)C(N)=N4)c3)nccc2c1` [Example 67, (S)-5-Amino-3-(difluoromethyl)-3-(2-fluoro-5-((3-methoxy-1,7-naphthyridin-8-yl)amino)phenyl)-6,6-dimethyl-3,6-dihydro-2H-1,4-thiazine 1,1-dioxide], the values for the IC50 (in test [1]; in test [2]; at Cathepsin D (Cat D)) were 68 nM, 980 nM and more than 400000 nM, respectively.

For the compound `CC1(C)C(N)=N[C@](C)(c2cc(Nc3nccc4cc(Cl)cnc34)cc(F)c2F)CS1(=O)=O` [Example 69, (R)-5-Amino-3-(5-((3-chloro-1,7-naphthyridin-8-yl)amino)-2,3-difluorophenyl)-3,6,6-trimethyl-3,6-dihydro-2H-1,4-thiazine 1,1-dioxide], the IC50 came out at 0.4 nM in test [1], 23.1 nM in test [2] and 8560 nM at Cathepsin D (Cat D).

On to `CC1(C)C(N)=N[C@](C)(c2cc(Nc3nccc4nc(O)cnc34)cc(F)c2F)CS1(=O)=O` [Example 71, (R)-5-Amino-3-(2,3-difluoro-5-((2-hydroxypyrido[3,4-b]pyrazin-5-yl)amino)phenyl)-3,6,6-trimethyl-3,6-dihydro-2H-1,4-thiazine 1,1-dioxide], for which the IC50 in test [1] came to 3.7 nM; in test [2], 47.4 nM; on Cathepsin D (Cat D) it was 45200 nM.

Consider `CC1(C)C(N)=N[C@@](C)(c2cc(Nc3nccc4nc(O)cnc34)cc(F)c2F)CS1(=O)=O` [Example 72, (S)-5-Amino-3-(2,3-difluoro-5-((2-hydroxypyrido[3,4-b]pyrazin-5-yl)amino)phenyl)-3,6,6-trimethyl-3,6-dihydro-2H-1,4-thiazine 1,1-dioxide], for which the results for the IC50 (in test [1]; in test [2]; on Cathepsin D (Cat D)) were 505 nM, 5350 nM and 175000 nM, respectively.

On to `CC1(C)C(N)=N[C@](C)(c2cc(Nc3csc4cc(C#N)cnc34)ccc2F)CS1(=O)=O` [Example 73, (R)-3-((3-(5-Amino-3,6,6-trimethyl-1,1-dioxido-3,6-dihydro-2H-1,4-thiazin-3-yl)-4-fluorophenyl)amino)thieno[3,2-b]pyridine-6-carbonitrile], for which the IC50 in test [1] was determined as 2 nM; in test [2], 1.6 nM; at Cathepsin D (Cat D) it was 27300 nM.
